Measured values as given in US9889101B2, “Therapeutic treatment of cancer and dysplasia of the cervix or vagina using estrogen antagonists” (Wisconsin Alumni Research Foundation, priority 2009, dated 2018).

Columns and labels:
ER = conditions: undefined if not mentioned; cited from earlier work
[1] = tested on: K14E6/K14E7 double transgenic mice; assay: Prevention of cervical/vaginal cancer in E2-treated K14E6/K14E7 mice (preventive fulvestrant)
Protocol: Mice. […] Experimental mice were generated by crossing K14E7 hemizygote and K14E6 homozygote mice. Female progenies were genotyped by PCR and a slow-releasing 17β-estradiol (E2) tablet (0.05 mg/60 days) (Innovative Research of America) was inserted subcutaneously under the dorsal skin every two months beginning at 4-6 weeks of age. After 6-month treatment with E2, one group of mice was sacrificed immediately to evaluate cancer phenotypes (6M E2 group), another group was maintained for another month without further treatment (6M E2+1M without fulvestrant group), and the third group was treated with fulvestrant for a month (6M E2+1M with fulvestrant group).
Fulvestrant treatment. Faslodex (50 mg/ml, human formulation of intramuscular injection of fulvestrant) was purchased from Astra Zeneca. Mice were subcutaneously injected with 0.15 ml (equivalent to 7.5 mg of fulvestrant) of Faslodex twice a week for a month (total of 9 injections).

[2] = tested on: CaSki cervical cancer cell line (ERα-negative); assay: Subcutaneous CaSki tumors in nude mice; assay type: in vivo, human; conditions: estrogen-treated nude mice, with fulvestrant 7.5 mg s.c. twice a week
[3] = tested on: K14E6/K14E7 double transgenic mice; assay: Treatment of pre-existing cervical/vaginal cancer and dysplasia in estrogen-treated K14E6/K14E7 mice
Protocol: Experimental mice were generated by crossing K14E7 hemizygote and K14E6 homozygote mice. Female progenies were genotyped by PCR and a slow-releasing 17β-estradiol (E2) tablet (0.05 mg/60 days) (Innovative Research of America) was inserted subcutaneously under the dorsal skin every two months beginning at 4-6 weeks of age. After 6-month treatment with E2, one group of mice was sacrificed immediately to evaluate cancer phenotypes (6M E2 group), another group was maintained for another month without further treatment (6M E2+1M without fulvestrant group), and the third group was treated with fulvestrant for a month (6M E2+1M with fulvestrant group).
Faslodex (50 mg/ml, human formulation of intramuscular injection of fulvestrant) was purchased from Astra Zeneca. Mice were subcutaneously injected with 0.15 ml (equivalent to 7.5 mg of fulvestrant) of Faslodex twice a week for a month (total of 9 injections).
Mice were subsequently injected with fulvestrant as described in Materials and Methods. Reproductive tracts were harvested, fixed in para-formaldehyde (PFA), and embedded in paraffin. Every tenth 5 μM section was stained with H&E and histopathologically scored to identify the worst grade of cervical/vaginal disease present in each animal. […] EVISTA® tablets were purchased from Eli Lilly and Company, which are human formulation of raloxifene (60 mg/tablet). Tablets were resuspended in phosphate buffered saline at a final concentration of 10 mg/ml. K14E6/K14E7 double transgenic mice were treated with E2 for 6 months and subsequently with raloxifene for a month by intraperitoneally injecting them with 0.15 ml of raloxifene suspension (equivalent to 1.5 mg) 5 days a week.

[4] = tested on: CVX1 human cervical cancer cells (ERα-positive); assay: Subcutaneous CVX1 tumors in nude mice; assay type: in vivo; conditions: estrogen-treated nude mice, fulvestrant 7.5 mg s.c. twice a week, two-week treatment period
[5] = tested on: nontransgenic female mice; assay: Uterine wet weight after one week of fulvestrant (dose finding); conditions: two injections day 0 and day 3, uteri weighed day 7, normalized to body weight
Description: The indicated dose was given to nontransgenic female mice by two injections at day 0 and day 3, and uteri were harvested and weighed at day 7. Uterine wet weight was normalized to body weight.

[6] = 6M E2 + preventive fulvestrant (one month at the three-month time point), six-month endpoint
[7] = 6M E2 + preventive fulvestrant, six-month endpoint
[8] = 6M E2 + 1M fulvestrant 7.5 mg s.c. twice a week, 13 mice
[9] = 6M estrogen then fulvestrant for two weeks
[10] = 6M E2 + 1M raloxifene 1.5 mg i.p. 5 days a week

## COc1ccc(-c2sc3cc(O)ccc3c2Oc2ccc(OCCN3CCCCC3)cc2)cc1 [Arzoxifene]
ER
  Effect in cervix, vagina and endometrium: antagonist in endometrium

## CC/C(=C(/c1ccc(OCCN(C)C)cc1)c1cccc(O)c1)c1ccccc1 [Droloxifene]
ER
  Effect in cervix, vagina and endometrium: agonist in endometrium

## CC1=C(c2ccc(OC(=O)C(C)(C)C)cc2)[C@H](c2ccc(OCCN3CCCCC3)cc2)Oc2cc(OC(=O)C(C)(C)C)ccc21 [EM-800]
ER
  Effect in cervix, vagina and endometrium: antagonist in endometrium

## CC/C(=C(\c1ccc(I)cc1)c1ccc(OCCN2CCCC2)cc1)c1ccccc1 [Idoxifene]
ER
  Effect in cervix, vagina and endometrium: agonist in endometrium

## Oc1ccc2c(c1)CC[C@H](c1ccccc1)[C@@H]2c1ccc(OCCN2CCCC2)cc1 [Lasofoxifene]
ER
  Effect in cervix, vagina and endometrium: neutral in endometrium

## COc1ccc2c(c1)OC(C)(C)[C@@H](c1ccccc1)[C@@H]2c1ccc(OCCN2CCCC2)cc1 [Levormeloxifene]
ER
  Effect in cervix, vagina and endometrium: agonist in endometrium

## COc1ccc2c(c1)OC(C)(C)C(c1ccccc1)C2c1ccc(OCCN2CCCC2)cc1 (centres unmarked) [Ormeloxifene]
ER
  Effect in cervix, vagina and endometrium: antagonist in endometrium

## Cc1c(-c2ccc(O)cc2)n(Cc2ccc(OCCN3CCCCC3)cc2)c2ccc(O)cc12 [Pipendoxifene]
ER
  Effect in cervix, vagina and endometrium: antagonist in endometrium

## CC/C(=C(\c1ccccc1)c1ccc(OCCN(C)C)cc1)c1ccccc1 [Tamoxifen]
ER
  Effect in cervix, vagina and endometrium: agonist in cervix, vagina,

## CN(C)CCOc1ccc(/C(=C(/CCCl)c2ccccc2)c2ccccc2)cc1 [Toremifene]
ER
  Effect in cervix, vagina and endometrium: agonist in endometrium

## C[C@]12CC[C@@H]3c4ccc(O)cc4C[C@@H](CCCCCCCCC[S+]([O-])CCCC(F)(F)C(F)(F)F)[C@H]3[C@@H]1CC[C@@H]2O (some centres unmarked) [fulvestrant]
[1]; [6]
  # mice with no dysplasia or cancer, Cervix: 6
  # mice with no dysplasia or cancer, Vagina: 6
[1]; [7]
  # mice w/ dysplasia only, CIN1: 0 (0)
  # mice w/ dysplasia only, CIN2: 0 (0)
  # mice w/ dysplasia only, CIN3: 0 (0)
  # mice w/ dysplasia only, VIN1: 0 (0)
  # mice w/ dysplasia only, VIN2: 0 (0)
  # mice w/ dysplasia only, VIN3: 0 (0)
  # mice w/cancer and dysplasia, Cervix: 0 (0)
  # mice w/cancer and dysplasia, Vagina: 0 (0)
  mice w/cancer and dysplasia (%), Cervix: 0 (0) %
  mice w/cancer and dysplasia (%), Vagina: 0 (0) %
[1]; fulvestrant for one month at the three-month time point of E2 treatment
  cervical disease at the six-month endpoint: neither CIN nor cervical cancer
[2]
  CaSki tumor growth: 4.7 fold
[3]; [8]
  number of mice with CIN1 as worst state (cervix): 0 (0)
  number of mice with CIN2 as worst state (cervix): 0 (0)
  number of mice with CIN3 as worst state (cervix): 0 (0)
  number of mice with VIN1 as worst state (vagina): 0 (0)
  number of mice with VIN2 as worst state (vagina): 0 (0)
  number of mice with VIN3 as worst state (vagina): 0 (0)
  number of mice with cervical cancer: 1 (1)
  number of mice with no dysplasia (worst state of disease): 11
  number of mice with vaginal cancer: 1 (1)
[3]; 6M E2 + 1M with fulvestrant
  Average size of the largest tumor: 0.02 ± 0.05^ mm^2
  Tumor multiplicity, Cervix: 0.2 ± 0.5
  Tumor multiplicity, Vagina: 0.1 ± 0.3
[3]; 6M estrogen then fulvestrant for 1 month
  dysplastic lesions (CIN and VIN) in lower reproductive tract: absence of any grade of dysplastic lesions
[3]; [9]
  cancers in the lower reproductive tracts: still had cancers
  dysplastic lesions in lower reproductive tract: absent
[3]; fulvestrant-treated mice
  thickness of lower reproductive tract epithelia: 2-3 layers of cells
[3]; of 13 mice, one cervical, one vaginal cancer
  mice in which cancers persisted after one-month fulvestrant: 2
[4]
  CVX1 tumor growth: did not grow at all
[5]; fulvestrant 10 mg/week
  decrease in uterine wet weight: 50%
[5]; fulvestrant 15 mg/week
  reduction in uterine wet weight: 70%
ER
  Effect in cervix, vagina and endometrium: antagonist in cervix, vagina,

## O=C(c1ccc(OCCN2CCCCC2)cc1)c1c(-c2ccc(O)cc2)sc2cc(O)ccc12 [raloxifene]
[3]; [10]
  # mice w/ dysplasia only, CIN1: 0 (0)
  # mice w/ dysplasia only, CIN2: 0 (0)
  # mice w/ dysplasia only, CIN3: 0
  # mice w/ dysplasia only, VIN1: 0 (0)
  # mice w/ dysplasia only, VIN2: 0 (0)
  # mice w/ dysplasia only, VIN3: 1
  # mice w/cancer and dysplasia, Cervix: 0 (0)
  # mice w/cancer and dysplasia, Vagina: 0 (0)
  # mice with no dysplasia or cancer, Cervix: 7
  # mice with no dysplasia or cancer, Vagina: 6
  mice w/cancer and dysplasia (%), Cervix: 0 (0) %
  mice w/cancer and dysplasia (%), Vagina: 0 (0) %
[3]; 6M E2 then raloxifene 1.5 mg i.p. 5 days a week for a month
  regression of cervical and vaginal disease including cancers: complete regression
ER
  Effect in cervix, vagina and endometrium: neutral in endometrium
